Measured values taken from the NIST ThermoML archive (doi:10.1016/j.jct.2017.09.022).
Where “and” joins values, the source holds several entries; their conditions need not be identical. Equal entries are not always repeated.

Experiment: molar heat capacity at constant pressure
Conditions: 101.33 kPa, Crystal, Small (less than 1 g) adiabatic calorimetry

C[C@@H](O)[C@H](N)C(=O)O [L-threonine]
Conditions | molar heat capacity at constant pressure
5 K | 0.06402 J/K/mol
7.37 K | 0.2004 J/K/mol
7.65 K | 0.2303 J/K/mol
8.44 K | 0.3068 J/K/mol
9.19 K | 0.3958 J/K/mol
9.43 K | 0.4407 J/K/mol
9.67 K | 0.4739 J/K/mol
9.9 K | 0.4922 J/K/mol
10 K | 0.5155 J/K/mol
10.18 K | 0.5729 J/K/mol
10.51 K | 0.6643 J/K/mol
10.84 K | 0.7242 J/K/mol
11.17 K | 0.8156 J/K/mol
11.5 K | 0.9129 J/K/mol
11.83 K | 0.9969 J/K/mol
12.17 K | 1.113 J/K/mol
12.51 K | 1.243 J/K/mol
12.84 K | 1.353 J/K/mol
13.18 K | 1.481 J/K/mol
13.53 K | 1.619 J/K/mol
13.87 K | 1.76 J/K/mol
14.22 K | 1.913 J/K/mol
14.57 K | 2.065 J/K/mol
14.92 K | 2.237 J/K/mol
15 K | 2.278 J/K/mol
15.27 K | 2.377 J/K/mol
15.62 K | 2.567 J/K/mol
15.97 K | 2.765 J/K/mol
16.32 K | 2.985 J/K/mol
16.68 K | 3.152 J/K/mol
17.04 K | 3.354 J/K/mol
17.4 K | 3.602 J/K/mol
17.76 K | 3.807 J/K/mol
18.11 K | 4.063 J/K/mol
18.48 K | 4.285 J/K/mol
18.83 K | 4.521 J/K/mol
19.2 K | 4.803 J/K/mol
19.56 K | 5.051 J/K/mol
19.93 K | 5.331 J/K/mol
20 K | 5.346 J/K/mol
20.52 K | 5.738 J/K/mol
21.27 K | 6.302 J/K/mol
22.01 K | 6.89 J/K/mol
22.77 K | 7.515 J/K/mol
23.52 K | 8.157 J/K/mol
24.28 K | 8.822 J/K/mol
25 K | 9.478 J/K/mol
25.04 K | 9.545 J/K/mol
25.8 K | 10.28 J/K/mol
26.57 K | 10.94 J/K/mol
27.34 K | 11.62 J/K/mol
28.11 K | 12.31 J/K/mol
28.88 K | 13.09 J/K/mol
29.66 K | 13.84 J/K/mol
30 K | 14.22 J/K/mol
30.44 K | 14.63 J/K/mol
31.22 K | 15.38 J/K/mol
32.01 K | 16.18 J/K/mol
32.79 K | 16.94 J/K/mol
33.58 K | 17.68 J/K/mol
34.37 K | 18.37 J/K/mol
35 K | 19.04 J/K/mol
35.15 K | 19.16 J/K/mol
35.94 K | 19.87 J/K/mol
36.73 K | 20.63 J/K/mol
37.52 K | 21.36 J/K/mol
38.32 K | 22.06 J/K/mol
39.11 K | 22.79 J/K/mol
39.9 K | 23.46 J/K/mol
40 K | 23.61 J/K/mol
40.69 K | 24.2 J/K/mol
41.48 K | 24.95 J/K/mol
42.28 K | 25.65 J/K/mol
43.08 K | 26.38 J/K/mol
43.88 K | 27.09 J/K/mol
44.68 K | 27.83 J/K/mol
45 K | 28.02 J/K/mol
45.48 K | 28.52 J/K/mol
46.27 K | 29.22 J/K/mol
47.07 K | 29.92 J/K/mol
47.87 K | 30.56 J/K/mol
48.67 K | 31.17 J/K/mol
49.47 K | 31.85 J/K/mol
50 K | 32.34 J/K/mol
50.27 K | 32.5 J/K/mol
51.07 K | 33.12 J/K/mol
51.88 K | 33.83 J/K/mol
52.68 K | 34.53 J/K/mol
53.48 K | 35.28 J/K/mol
54.29 K | 36.14 J/K/mol
55.09 K | 36.92 J/K/mol
55.9 K | 37.74 J/K/mol
56.7 K | 38.35 J/K/mol
57.51 K | 38.9 J/K/mol
58.32 K | 39.21 J/K/mol
59.12 K | 39.75 J/K/mol
59.93 K | 40.38 J/K/mol
60 K | 40.57 J/K/mol
60.74 K | 41.01 J/K/mol
61.55 K | 41.64 J/K/mol
62.35 K | 42.25 J/K/mol
63.15 K | 42.88 J/K/mol
63.96 K | 43.87 J/K/mol
64.76 K | 44.47 J/K/mol
65.57 K | 44.98 J/K/mol
66.38 K | 45.55 J/K/mol
67.19 K | 46.09 J/K/mol
67.99 K | 46.67 J/K/mol
68.8 K | 47.24 J/K/mol
69.61 K | 47.68 J/K/mol
70 K | 48.06 J/K/mol
70.54 K | 48.31 J/K/mol
71.58 K | 49.14 J/K/mol
72.63 K | 49.7 J/K/mol
73.67 K | 50.33 J/K/mol
74.72 K | 50.78 J/K/mol
75.77 K | 51.34 J/K/mol
76.82 K | 51.96 J/K/mol
77.87 K | 52.51 J/K/mol
78.92 K | 53.08 J/K/mol
79.65 K | 53.03 J/K/mol
79.97 K | 53.66 J/K/mol
80 K | 53.55 J/K/mol
80.45 K | 53.52 J/K/mol
81.02 K | 54.31 J/K/mol
81.25 K | 53.96 J/K/mol
82.06 K | 54.87 J/K/mol and 54.48 J/K/mol
82.86 K | 54.97 J/K/mol
83.11 K | 55.52 J/K/mol
83.66 K | 55.42 J/K/mol
84.17 K | 56.16 J/K/mol
84.46 K | 55.88 J/K/mol
85.26 K | 56.34 J/K/mol
86.06 K | 56.87 J/K/mol
86.86 K | 57.38 J/K/mol
87.65 K | 57.86 J/K/mol
88.45 K | 58.33 J/K/mol
89.25 K | 58.77 J/K/mol
90 K | 59.28 J/K/mol
90.05 K | 59.23 J/K/mol
90.85 K | 59.72 J/K/mol
91.64 K | 60.19 J/K/mol
92.44 K | 60.74 J/K/mol
93.24 K | 61.3 J/K/mol
94.04 K | 61.77 J/K/mol
94.84 K | 62.19 J/K/mol
95.63 K | 62.65 J/K/mol
96.43 K | 63.12 J/K/mol
97.23 K | 63.64 J/K/mol
98.02 K | 64.16 J/K/mol
98.82 K | 64.62 J/K/mol
99.62 K | 65.04 J/K/mol
100 K | 65.27 J/K/mol
100.5 K | 65.53 J/K/mol
101.45 K | 66.12 J/K/mol
102.41 K | 66.61 J/K/mol
103.36 K | 67.11 J/K/mol
104.32 K | 67.67 J/K/mol
105.27 K | 68.2 J/K/mol
106.22 K | 68.79 J/K/mol
107.18 K | 69.35 J/K/mol
108.13 K | 69.83 J/K/mol
109.09 K | 70.36 J/K/mol
110 K | 70.84 J/K/mol
110.05 K | 70.8 J/K/mol
111 K | 71.32 J/K/mol
111.95 K | 71.94 J/K/mol
112.91 K | 72.42 J/K/mol
113.86 K | 72.95 J/K/mol
114.82 K | 73.43 J/K/mol
115.77 K | 73.97 J/K/mol
116.72 K | 74.36 J/K/mol
117.68 K | 74.92 J/K/mol
118.63 K | 75.5 J/K/mol
119.59 K | 75.89 J/K/mol
120 K | 76.16 J/K/mol
120.53 K | 76.35 J/K/mol
121.49 K | 76.8 J/K/mol
122.44 K | 77.45 J/K/mol
123.39 K | 77.91 J/K/mol
124.35 K | 78.3 J/K/mol
125.3 K | 78.8 J/K/mol
126.25 K | 79.27 J/K/mol
127.21 K | 79.82 J/K/mol
128.16 K | 80.26 J/K/mol
129.11 K | 80.78 J/K/mol
130 K | 81.23 J/K/mol
130.07 K | 81.26 J/K/mol
131.02 K | 81.7 J/K/mol
131.97 K | 82.11 J/K/mol
132.93 K | 82.72 J/K/mol
133.87 K | 83.14 J/K/mol
134.82 K | 83.73 J/K/mol
135.76 K | 84.14 J/K/mol
136.71 K | 84.56 J/K/mol
137.66 K | 85.22 J/K/mol
138.61 K | 85.64 J/K/mol
139.56 K | 85.97 J/K/mol
140 K | 86.22 J/K/mol
140.51 K | 86.55 J/K/mol
141.46 K | 87.05 J/K/mol
142.41 K | 87.47 J/K/mol
143.36 K | 87.8 J/K/mol
144.31 K | 88.38 J/K/mol
